Test results reported in patent US20060251574A1, “Cytotoxins and diagnostic imaging agents comprising hsp90 ligands” (priority 2002, published 2006).

Test system: HSP90
Protocol: Purified native HSP90 protein (Stressgen) or cell lysates prepared in lysis buffer (20 mM Hepes, pH 7.3, 1 mM EDTA, 5 mM MgCl2, 100 mM KCl) were incubated in the absence or presence of CF7 (17-AAG) or test compound for 15 min at 4° C. […] BioMag™ streptavidin magnetic beads were then added to the mixture, and the reaction was incubated by rotating for another 1 hr at 4° C. Tubes were placed on a magnetic rack, and the unbound supernatant removed. The magnetic beads were washed three times in lysis buffer, and the washes discarded. SDS-PAGE sample buffer was added to the beads and boiled for 5 min at 95° C. Samples were analyzed on 10% SDS protein gels (Novex), and then Western blots using anti-HSP90 monoclonal antibody (Stressgen SPA-830). The bands in the Western Blots were quantitated using the Bio-rad Fluor-S Imager, and the % inhibition of binding of CF7 or test compound calculated. The IC50 reported is the concentration of the compound needed to cause half-maximal inhibition of binding. For experiments that utilized shocked HSP90, the purified HSP90 native protein was incubated for 15 min at 90° C. For experiments that utilized bis-ANS treated HSP90, the purified HSP90 protein was incubated with bis-ANS (Molecular Probes) for 30 min at 37° C.

17-allylamino-geldanamycin [17-AAG] was tested, and the “apparent binding affinity for HSP90, tumor cells versus normal cells or purified HSP90 (FIG. 4)” value (BT474 lysate vs fibroblasts, RPTEC, purified HSP90) was “higher apparent binding affinity for HSP90 from tumor cells (BT474) than normal cells (fibroblasts, RPTEC) or purified HSP90 alone” and the “apparent binding affinity for HSP90, high Her2 expressing cells versus normal cells, heat-shocked or bis-ANS treated HSP90 (FIG. 5)” value (SKOY-3, SKBR-3, N87 lysates) was “higher apparent binding affinity for HSP90 from the specific high Her2 expressing cells, SKOY-3, SKBR-3, and N87, than from normal cells, heat-shocked HSP90, or bis-ANS treated HSP90”.
